Converted amounts (≈) assume the structure as drawn. Read-outs that look alike come from different tables or passages of the source.
Columns and labels:
[1] = system: MRSA USA300; test: Antibacterial activity assay (MIC by broth microdilution, MBC by subculture); type: cell-based, Staphylococcus aureus
Outline: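 CLSI broth microdilution: mid-log cultures (OD600 0.5 to 0.6) diluted to 5×10^5 cfu/mL in CAMHB, exposed to increasing doses in triplicate 24 hours at 37° C. MIC is lowest concentration without visible growth. For USA300, MBC is the lowest dilution without viable bacteria on subculture.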

[2] = system: S. aureus ATCC29213; test: Antibacterial activity assay (MIC, broth microdilution); type: cell-based, Staphylococcus aureus; conditions: for MIC: Staphylococcus aureus
[3] = system: VRSA SJC1200; test: as above; type: cell-based, Staphylococcus aureus; conditions: for MIC: Staphylococcus aureus, VRSA
[4] = system: S. aureus NCTC8325; test: as above; type: cell-based, Staphylococcus aureus; conditions: for MIC: Staphylococcus aureus
[5] = Antiproliferation assay (MTT); type: cell-based, murine; conditions: mouse, RAW264.7 macrophage cells, read-out: CC50 of SC5005
Method: FIG. 2: The biofilms of S. aureus NCTC8325 (the upper left graph) and MRSA USA300 (the upper right graph) were treated with increasing concentrations of blank control (Mock), DHA, daptomycin (DAP), vancomycin (VAN), SC5005, and SC5005 in combination with DHA for 24 hours. The number of viable bacteria was then determined using a cfu assay. The data represent individual experiments and are shown as the mean±SD (n=3 per group). ns, nonsignificant, p>0.05; *p<0.05; **p<0.01; ***p<0.001. (The lower left graph) the biofilms of MRSA USA300 were treated with blank control (Mock) or SC5005 along with 80 mg/L DHA for 1, 3 or 10 minute(s). The viable bacteria in the biofilms harvested and enumerated using a cfu assay. The data represent independent experiments and are shown as mean±SD (n=3 per group). ns, nonsignificant, p>0.05; *p<0.05; **p<0.01; ***p<0.001 (The lower right graph) RAW264.7 cells were exposed to a blank control (Mock) or increasing concentrations of SC5005 and 80 mg/L DHA for […]. The viability of cells was determined by the MTT assay and expressed as a percentage relative to mock (DMSO and ethanol)-treated cells. The data shown are the mean±SD (n=3 per group).
The murine macrophage cell line RAW264.7 (BCRC) and human cervical epithelioid carcinoma cell line HeLa (BCRC) were maintained in Dulbecco's modified Eagle's medium (DMEM; Gibco-BRL) supplemented with 10% heat-inactivated FBS (Gibco-BRL). The human embryonic kidney cell line HEK-293 (BCRC) and the immortalized nontumorigenic keratinocyte cell line HaCaT (obtained from Dr. Yung-Chiy Chang, National Taiwan University, Taiwan) were maintained in Roswell Park Memorial Institute (RPMI; Gibco-BRL) medium supplemented with 10% heat-inactivated FBS. Cells were cultured in T-75 flasks at 37° C. in a 5% CO2 atmosphere.
The effects of SC5005 and DHA on the viability of mammalian cells were assessed using a 3-(4,5-dimethylthiazol-2-yl)-2,5-diphenyl-2H-tetrazolium bromide (MTT) assay in six replicates per treatment group. Briefly, cells were seeded into 96-well, flat-bottomed plates at 10^4 cells/well, cultured for 24 hours, and then exposed to SC5005 at concentrations ranging from 5-30 mg/L or the combination of SC5005 with designated concentrations of DHA for 24 hours. Controls were treated with DMSO and ethanol vehicles at concentrations equal to those for drug-treated cells. At the end of treatments, the medium was replaced with 0.5 g/L MTT-containing culture medium, and the cells were incubated in a CO2 incubator at 37° C. for an additional 1.5 hours. Supernatants were removed from the wells, and the reduced MTT dye was solubilized in DMSO followed by measuring the absorbance at 570 nm of each well using a VersaMax microplate reader (Molecular Devices, USA).

[6] = system: S. aureus DAP-NS; test: Antibacterial activity assay (MIC, broth microdilution); type: cell-based, Staphylococcus aureus; conditions: for MIC: Staphylococcus aureus
[7] = system: MRSA SCCmec VT; test: as above; type: cell-based, Staphylococcus aureus; conditions: for MIC: Staphylococcus aureus, MRSA
[8] = system: MRSA ATCC49476; test: as above; type: cell-based, Staphylococcus aureus; conditions: for MIC: Staphylococcus aureus

MIC ([1]; +8 mg/L DHA): 0.0038 ng/mL
MIC ([1]; +8 mg/L DHA, MRSA USA300 (Table 4)): 0.015 ng/mL
MIC ([1]; Staphylococcus aureus, MRSA / SC5005 / USA300, fatty acid 0 mg/L (SC5005 alone), read-out: MIC SC5005): 250 ng/mL
MIC ([1]; Staphylococcus aureus, amide compound alone, read-out: MIC): 250 ng/mL
MIC ([1]; agent alone, MRSA USA300 (Table 4)): 250 ng/mL
MIC ([2]; ATCC29213, +8 mg/L DHA): 0.0039 µg/mL (≈ 7.48 nM)
MIC ([2]; ATCC29213, agent alone): 0.25 µg/mL (≈ 479 nM)
MIC ([3]; +8 mg/L DHA): 0.0019 ng/mL (≈ 0.00364 nM)
MIC ([3]; agent alone): 250 ng/mL (≈ 479 nM)
MIC ([4]; NCTC8325, +8 mg/L DHA): 0.0019 ng/mL (≈ 0.00364 nM)
MIC ([4]; NCTC8325, agent alone): 250 ng/mL (≈ 479 nM)
MIC ([6]; +8 mg/L DHA): 0.0019 ng/mL (≈ 0.00364 nM)
MIC ([6]; agent alone): 250 ng/mL (≈ 479 nM)
MIC ([7]; +8 mg/L DHA): 0.0019 ng/mL (≈ 0.00364 nM)
MIC ([7]; agent alone): 250 ng/mL (≈ 479 nM)
MIC ([8]; +8 mg/L DHA): 0.00095 ng/mL (≈ 0.00182 nM)
MIC ([8]; agent alone): 250 ng/mL (≈ 479 nM)
Compound: O=C(Nc1ccc(Cl)c(C(F)(F)F)c1)C(CCCl)C(=O)Nc1ccc(Cl)c(C(F)(F)F)c1 [SC5005]
MBC ([1]; +8 mg/L DHA): 0.0078 µg/mL
combination effect ([1]; MIC, +8 mg/L DHA, MRSA USA300 (Table 4)): (Syn) (Synergy (Syn) was defined as an FICI≤0.5)
MBC ([1]; Staphylococcus aureus, MRSA / SC5005 / USA300, fatty acid 0 mg/L (SC5005 alone), read-out: MBC SC5005): 2 µg/mL
MBC ([1]; Staphylococcus aureus, amide compound alone, read-out: MBC): 2 µg/mL
combination effect ([2]; MIC, +8 mg/L DHA): (Syn) (Synergy (Syn) was defined as an FICI≤0.5)
combination effect ([3]; MIC, +8 mg/L DHA): (Syn) (Synergy (Syn) was defined as an FICI≤0.5)
combination effect ([4]; MIC, +8 mg/L DHA): (Syn) (Synergy (Syn) was defined as an FICI≤0.5)
CC50 at 24 h ([5]; DHA 0 mg/L): 19.5 ± 0.6 µg/mL
CC50 at 24 h ([5]; DHA 4 mg/L): 22.6 ± 0.8 µg/mL
CC50 at 24 h ([5]; DHA 8 mg/L): 19.7 ± 2.5 µg/mL
CC50 at 24 h ([5]; DHA 16 mg/L): 21.2 ± 2.3 µg/mL
combination effect ([6]; MIC, +8 mg/L DHA): (Syn) (Synergy (Syn) was defined as an FICI≤0.5)
combination effect ([7]; MIC, +8 mg/L DHA): (Syn) (Synergy (Syn) was defined as an FICI≤0.5)
combination effect ([8]; MIC, +8 mg/L DHA): (Syn) (Synergy (Syn) was defined as an FICI≤0.5)

From US20260130885A1, “ANTIMICROBIAL COMPOSITIONS, PHARMACEUTICAL COMPOSITIONS AND USE THEREOF” (priority 2022, published 2026)
